Reference: ChEMBL document CHEMBL1136163, “Conformationally-restricted analogues of efflux pump inhibitors that potentiate the activity of levofloxacin in Pseudomonas aeruginosa” (Bioorg Med Chem Lett, 2003)
≈ marks a conversion by molar mass, not a printed value. Where a SMILES comes first, the peptide text is derived from it. The star is where a group is joined. βNA = c1ccc2cc(N*)ccc2c1

Legend:
[1] = In vivo minimum lethal dose causing lethality to >/=66% of the mice tested i.v.; format: ADME, organism-based; settings: mouse, iv
[2] = tested on: Pseudomonas aeruginosa; test: In vitro minimum concentration of the efflux pump inhibitor required to inhibit the growth of PAM 1723 a strain of Pseudomonas aeruginosa; format: functional
[3] = tested on: Pseudomonas aeruginosa; test: In vitro minimum concentration of the efflux pump inhibitor required to reduce (potentiate) the MIC of fuoroquinolone levofloxacin 8-fold (LVFX); format: functional
[4] = In vivo minimum lethal dose causing lethality to >/=66% of the mice tested i.p.; format: ADME, organism-based; settings: mouse, ip
[5] = In vivo toxicity in mice i.v.; format: organism-based; settings: mouse, iv
[6] = Clearance measured in rat; format: ADME, organism-based; settings: in vivo, read-out: CLfree (converted)

Row | SMILES | MLD [1] | MIC [2] | MPC [3] | MLD [4] | LD50 [5] | clearance [6]
1 | NC[C@@H]1CN[C@@H](C(=O)N[C@H](CCc2ccccc2)C(=O)Nc2cnc3ccccc3c2)C1 | 50 mg/kg | > 512 µg/mL | 5 µg/mL | – | – | –
2 | NCCC[C@@H](N)C(=O)N[C@H](CCc1ccccc1)C(=O)Nc1cnc2ccccc2c1 | < 25 mg/kg | > 512 µg/mL | 10 µg/mL | 200 mg/kg | < 25 mg/kg | 28.3 mL/min/kg
3 | CN(C(=O)[C@@H](N)CCc1ccccc1)[C@@H](CCCN)CSc1nc2ccccc2s1 | 25 mg/kg | 128 µg/mL (≈ 289 µM) | 5 µg/mL | – | – | –
4 | CC(C)(C)c1ccc2ncc(NC(=O)[C@H]3C[C@H](CN)CN3)cc2c1 | > 150 mg/kg | 128 µg/mL (≈ 392 µM) | 5 µg/mL | – | – | –
5 | NC[C@@H]1CN[C@@H](C(=O)N[C@H](CCc2ccccc2)C(=O)Nc2ccc3ncccc3c2)C1 | > 100 mg/kg | > 512 µg/mL | 10 µg/mL | – | – | 48.3 mL/min/kg
6 | NCCO[C@H]1CN[C@H](C(=O)N[C@H](CCc2ccccc2)C(=O)Nc2cnc3ccccc3c2)C1 | 70 mg/kg | > 512 µg/mL | 10 µg/mL | – | – | –
7 | C[C@H](N)C(=O)N[C@H](CCc1ccccc1)C(=O)Nc1cnc2ccccc2c1 | 125 mg/kg | – | >40 µg/mL | – | – | –
8 | CN(C(=O)[C@@H](N)Cc1ccccc1)[C@@H](CCCN)C(=O)Nc1ccc2ccccc2c1 | < 25 mg/kg | 256 µg/mL (≈ 612 µM) | 5 µg/mL | – | – | –
9 | CC(C)C[C@@H](NC(=O)[C@H](N)CCCN)C(=O)Nc1cnc2ccccc2c1 | 50 mg/kg | – | 20 µg/mL | 300 mg/kg | – | –
10 | CC(C)(C)c1ccc2ncc(NC(=O)CNC(=O)[C@H](N)CCCN)cc2c1 | 35 mg/kg | 64 µg/mL (≈ 172 µM) | 5 µg/mL | – | – | –
11 | C[C@H]1COc2c(N3CCN(C)CC3)c(F)cc3c(=O)c(C(=O)O)cn1c23.C[C@H]1COc2c(N3CCN(C)CC3)c(F)cc3c(=O)c(C(=O)O)cn1c23.O [LEVOFLOXACIN] | > 100 mg/kg | – | – | – | > 100 mg/kg | –
12 | N=C(N)NCCC[C@H](NC(=O)[C@@H](N)Cc1ccccc1)C(=O)Nc1ccc2ccccc2c1 [PABETAN] (H-Phe-Arg-βNA) | < 25 mg/kg | > 512 µg/mL | 10 µg/mL | – | < 25 mg/kg | –
